The target in one test is T1, BMX (Homo sapiens, UniProt P51813).
T1 sequence (P51813 1-675): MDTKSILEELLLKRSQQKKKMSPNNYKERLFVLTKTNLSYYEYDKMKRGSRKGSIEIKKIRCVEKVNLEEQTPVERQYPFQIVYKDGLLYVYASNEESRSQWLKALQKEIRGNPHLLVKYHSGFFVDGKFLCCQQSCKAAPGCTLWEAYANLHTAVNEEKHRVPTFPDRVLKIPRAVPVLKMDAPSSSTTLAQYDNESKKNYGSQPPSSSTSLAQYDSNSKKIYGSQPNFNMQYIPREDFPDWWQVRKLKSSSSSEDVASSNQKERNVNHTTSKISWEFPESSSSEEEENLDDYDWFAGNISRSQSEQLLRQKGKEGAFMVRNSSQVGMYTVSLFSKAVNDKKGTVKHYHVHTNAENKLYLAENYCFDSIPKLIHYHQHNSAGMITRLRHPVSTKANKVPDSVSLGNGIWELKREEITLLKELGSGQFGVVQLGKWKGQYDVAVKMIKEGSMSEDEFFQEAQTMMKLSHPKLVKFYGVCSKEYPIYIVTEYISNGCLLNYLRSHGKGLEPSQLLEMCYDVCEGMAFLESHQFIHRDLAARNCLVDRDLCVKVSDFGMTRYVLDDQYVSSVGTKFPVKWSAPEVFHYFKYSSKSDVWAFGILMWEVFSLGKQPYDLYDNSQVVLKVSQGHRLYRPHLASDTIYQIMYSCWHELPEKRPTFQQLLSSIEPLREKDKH
Put plainly: Kinase selectivity biochemical assay (FRET), BMX.

The target in a further test is T2, ITK (Homo sapiens, UniProt Q08881).
T2 sequence (Q08881 1-620): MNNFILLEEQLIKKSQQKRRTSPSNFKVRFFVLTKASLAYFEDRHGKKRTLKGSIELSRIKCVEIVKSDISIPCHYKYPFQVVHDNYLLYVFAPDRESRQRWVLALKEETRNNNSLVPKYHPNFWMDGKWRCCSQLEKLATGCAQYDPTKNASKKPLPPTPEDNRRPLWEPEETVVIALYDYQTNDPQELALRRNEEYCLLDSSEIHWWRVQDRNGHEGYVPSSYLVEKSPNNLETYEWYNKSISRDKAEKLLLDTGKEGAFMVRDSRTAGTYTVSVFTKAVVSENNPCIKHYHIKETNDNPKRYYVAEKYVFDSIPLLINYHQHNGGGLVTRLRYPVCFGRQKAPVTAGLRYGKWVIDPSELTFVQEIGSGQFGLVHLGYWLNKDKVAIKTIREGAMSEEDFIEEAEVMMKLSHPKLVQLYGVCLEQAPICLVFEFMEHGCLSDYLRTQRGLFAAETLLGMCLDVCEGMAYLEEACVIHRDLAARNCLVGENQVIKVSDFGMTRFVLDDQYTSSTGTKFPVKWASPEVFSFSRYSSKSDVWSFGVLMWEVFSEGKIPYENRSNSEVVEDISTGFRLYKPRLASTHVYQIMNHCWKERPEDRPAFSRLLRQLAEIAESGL
Put plainly: Kinase selectivity biochemical assay, ITK.

The target in the next test is T3, TXK (Homo sapiens, UniProt P42681).
T3 sequence (P42681 1-527): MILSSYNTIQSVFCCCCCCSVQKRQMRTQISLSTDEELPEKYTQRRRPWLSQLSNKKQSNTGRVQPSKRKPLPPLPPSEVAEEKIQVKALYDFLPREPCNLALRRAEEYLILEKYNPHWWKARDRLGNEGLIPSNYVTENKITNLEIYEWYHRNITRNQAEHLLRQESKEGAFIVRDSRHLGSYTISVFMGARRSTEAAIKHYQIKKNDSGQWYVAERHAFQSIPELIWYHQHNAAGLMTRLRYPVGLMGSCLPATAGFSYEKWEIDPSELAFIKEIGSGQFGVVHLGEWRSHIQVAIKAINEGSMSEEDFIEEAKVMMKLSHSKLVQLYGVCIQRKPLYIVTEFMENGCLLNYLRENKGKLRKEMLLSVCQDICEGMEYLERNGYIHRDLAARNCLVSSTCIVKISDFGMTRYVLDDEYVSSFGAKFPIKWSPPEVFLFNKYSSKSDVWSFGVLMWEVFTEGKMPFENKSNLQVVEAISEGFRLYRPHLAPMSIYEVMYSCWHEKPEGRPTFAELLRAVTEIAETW
The experiment in a line: Kinase biochemical assay (FRET), TXK. Particulars: read-out: inhibitory activity on TXK.

A further test relates to A431. Put plainly: Cell growth inhibition in EGFR overexpressed A431. Format: cell-based. Particulars: Homo sapiens, A-431; cellular level; read-out: IC50, cell growth inhibition in EGFR overexppressed A431.
A further test concerns CTLL-2. Put plainly: IL-2 induced T cell proliferation in CTLL-2. As to conditions: Mus musculus, cellular level. Format: cell-based.
The next test concerns the target BTK (Homo sapiens, UniProt Q06187). Put plainly: BTK occupancy in B cell line (Ramos cells, biotinylated probe, AlphaScreen). Format: cell-based. The method, then: A total of 5 × 10^5 Ramos cells/well were plated in 96-well PDL-coated plates in DMEM with high glucose (GIBCO) supplemented with 10% FBS. Serial dilutions of LY3439943 in DMSO (final DMSO concentration, 0.4%) were incubated with the cells for 1 h at 37 °C. An equal volume of a covalent biotinylated BTK probe was added (final concentration, 167 nM), and the cells were incubated for another 1 h at 37 °C. The cells were lysed, and the amount of BTK was determined using the AlphaScreen IgG Detection Kit (Perkin Elmer 6760617R) and an anti-BTK antibody (Thermo Scientific Cat# MA5-14929) following the manufacturer’s instructions. The signal was measured at 615 nm with an Envision plate reader (Perkin Elmer).
In general terms: Bead proximity is the source of the signal in Alpha formats.

Another test deals with B cells (IgM+CD40L). The experiment in a line: High-dimensional phosphorylation analysis, B cells (IgM+CD40L). Format: cell-based, human. The method, then:
The analysis measured 94 intracellular signaling nodes (81 phosphorylation sites, 10 total protein levels and 3 methylation/acetylation sites) in stimulated immune cells, including B cells (IgM plus CD40L), CD4 + and CD8 + T cells (IL-2; CD3 plus CD28), monocytes (M-CSF), NK cells (IL-2), and granulocytes (LPS).

[1] abbreviates: 30 μM, all time points (2, 5, 15, 60 min).

BTK, sequence (Q06187 whole entry): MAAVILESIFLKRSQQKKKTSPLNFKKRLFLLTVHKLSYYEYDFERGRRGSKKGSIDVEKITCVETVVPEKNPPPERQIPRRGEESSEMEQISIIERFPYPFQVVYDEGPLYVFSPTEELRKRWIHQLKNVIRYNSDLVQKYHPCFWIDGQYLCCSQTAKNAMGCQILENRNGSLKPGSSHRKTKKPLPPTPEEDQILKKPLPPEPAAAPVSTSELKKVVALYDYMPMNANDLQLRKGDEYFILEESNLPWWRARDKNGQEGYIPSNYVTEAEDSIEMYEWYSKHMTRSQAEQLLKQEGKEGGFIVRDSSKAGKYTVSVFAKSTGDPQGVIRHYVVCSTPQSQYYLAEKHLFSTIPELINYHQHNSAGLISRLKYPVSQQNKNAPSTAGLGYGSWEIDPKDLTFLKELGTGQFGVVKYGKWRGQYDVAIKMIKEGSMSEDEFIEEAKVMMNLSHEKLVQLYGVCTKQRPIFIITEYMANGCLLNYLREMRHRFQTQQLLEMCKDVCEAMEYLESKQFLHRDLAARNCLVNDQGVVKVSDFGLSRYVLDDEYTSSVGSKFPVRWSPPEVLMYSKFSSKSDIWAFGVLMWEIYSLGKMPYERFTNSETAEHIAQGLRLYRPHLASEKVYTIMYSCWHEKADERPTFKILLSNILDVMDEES

At BMX, `C=CC(=O)Nc1cccc(Oc2nc(Nc3ccc(N4CCN(C)CC4)cc3)nc3ccoc23)c1` [Poseltinib] showed an IC50 below 10 nM. For the same compound, the “selectivity toward BTK over ITK” value at ITK is on record as 53 ×. The IC50 at TXK was below 10 nM. For the same compound, in the test with A431, the IC50 was above 500 nM. In addition, in the test on CTLL-2, the IC50 was above 500 nM. The compound further returned an IC50 against BTK of 5 nM. In addition, in the test on B cells (IgM+CD40L) (30 µM, 5'), the “Akt phosphorylation, Log2Ratio Stim/Control” value was -0.97; the “BTK phosphorylation, Log2Ratio Stim/Control” value stood at 0.06; the “CREB1 phosphorylation, Log2Ratio Stim/Control” value worked out at 1.74; the “MAPK3 phosphorylation, Log2Ratio Stim/Control” value was determined as 1.30. Further, in the test on B cells (IgM+CD40L) (30 µM, 5'), the “PLCγ2 phosphorylation, Log2Ratio Stim/Control” value came out at 0.82; the “RPS6KA1 phosphorylation, Log2Ratio Stim/Control” value is recorded as 1.13; the “RPS6 phosphorylation, Log2Ratio Stim/Control” value turned out to be 1.35; the “SAPK/JNK phosphorylation, Log2Ratio Stim/Control” value is recorded as 0.82. For the same compound, in the test on B cells (IgM+CD40L) (30 µM, 5'), the “SLP76 phosphorylation, Log2Ratio Stim/Control” value is recorded as 0.86 and the “WIPF1 phosphorylation, Log2Ratio Stim/Control” value was found to be 1.81. In the test on B cells (IgM+CD40L) (setting [1]), the “phosphorylation of AKT (S473)” value is “inhibited”, the “phosphorylation of BTK (Y223)” value is given as “inhibited” and the “phosphorylation of PLCγ2 (Y759)” value is “inhibited”.

For the origin of these results see paper PMC8455565 (Scientific Reports, 2021).
